# Results: patent US20060127980A1, “Human excitatory amino acid transporter-2 gene promoter and uses thereof” (priority 2003, published 2006)
# Assays:
# Format in all cases: cell-based, human
# [1] = test system: hEAAT2 promoter; assay: flhEAAT2Prom-luc and deletion mutant luciferase reporter assay in PHFA treated with modulators; details: four day treatment
# Procedure: (§1) FIG. 4A-D. Effect of modulators of hEAAT2 activity on hEAAT2 expression and hEAAT2 promoter activity in PHFA. A. A Northern analysis of hEAAT2 and GAPDH mRNA expression following treatment with EGF (30 ng/ml), TGF-α (30 ng/ml), dbcAMP (200 μM, bromo-cAMP (100 μM) or TNF-α (200 U/ml) for 7 days. B. Nuclear run-on assays determining the relative rates of hEAAT2 and GAPDH transcription as a function of 7-day treatment with the same concentrations of the indicated agents. C. A time course of mRNA expression of hEAAT2 and GAPDH following treatment with EGF, bromo-cAMP or TNF-α (same concentrations as in A.). D. Fold luciferase activity in PHFA transfected with flhEAAT2Prom-luc or various deletion mutants of hEAAT2 and non-transfected controls treated with the indicated compounds for four days.
# Construction of hEAAT2 Promoter Deletion Mutants and Performance of the Luciferase Assays. 5′-deletion mutants of the hEAAT2 promoter were made with exonuclease III digestion using the Erase-A-Base System (Promega) as described for the PEG-3 promoter (Su et al., 2000, Oncogene 19(30):3411-3421). The flhEAAT2Prom-luc and flhEAAT2Prom-luc deletion mutants were cloned into the pGL3-basic luciferase reporter vector (Promega) and luciferase reporter assays were performed as described (Su et al., 2000, Oncogene 19(30):3411-3421; Su et al., 2001, Nucleic Acids Res 29(8):1661-1671), except that instead of using lipofectamine, which was toxic to PHFA, the calcium phosphate precipitation transfection technique was used (Babiss et al., 1986, Proc Natl Acad Sci USA 83(7):2167-2171).
# Preferential Expression of the hEAAT2 Promoter in PHFA and Deletion Analysis of the hEAAT2 Promoter. hEAAT2 is expressed in brain-derived cells, mainly astrocytes (Tanaka et al., 1997, Science 276(5319):1699-1702; Anderson et al., 2000, Glia 32(1):1-14). Experiments were performed to confirm hEAAT2 promoter activity in normal human astrocytes and to determine expression levels in other cell types (FIG. 2A). Primary early passage and established human normal and tumor cell lines were co-transfected with a putative full-length ˜2.5 kb hEAAT2 promoter, a SacII fragment extending from bp −2426 to bp +44, was cloned into the pGL3-basic vector (Promega), where it drove expression of the firefly luciferase (luc) gene, and a pSV-β-galactosidase expression plasmid. Relative fold expression of a full length hEAAT2 promoter-luciferase (flhEAAT2Prom-luc) construct was determined as described (Su et al., 2000, Oncogene 19(30):3411-3421; Su et al., 2001, Nucleic Acids Res 29(8):1661-1671), and activity versus transfection with a pSV-β-galactosidase plasmid was calculated as described (Su et al., 2000, Oncogene 19(30):3411-3421; Su et al., 2001, Nucleic Acids Res 29(8):1661-1671) to equalize for differences in transfection efficiency.
# To examine further the relationship between hEAAT2 and treatment with the various glutamate transporter modulators, transient transfection assays were performed in PHFA using the flhEAAT2Prom-luc constructs and various deletions thereof (FIG. 4D). […] In the case of dbcAMP, promoter activity was enhanced by ˜3-fold.
# [2] = test system: hEAAT2 transcription; assay: Nuclear run-on assay of hEAAT2 transcription in PHFA; details: 7-day treatment
# Procedure: as §1
# Primer Extension Analysis and Nuclear Run-on Assays. Primer extension assays were performed as described (Su et al., 2000, Oncogene 19(30):3411-3421). A primer with the sequence 5′-[…]-3′ (SEQ ID NO:6) complementary to the 5′ UTR of the hEAAT2 cDNA was used for this assay. Nuclear run-on assays were performed as described (Su et al., 1997, Proc Natl Acad Sci USA 94(17):9125-9130).
# To examine whether stimulation of hEAAT2 expression involves transcriptional changes, nuclear run-on assays were performed.
# [3] = test system: hEAAT2 promoter; assay: hEAAT2 promoter luciferase assay of agents in PHFA (FIG. 10); details: PHFA passage #3; 10 μM
# Procedure: (§2) FIG. 10. Effect of various agents on hEAAT2 promoter activity on primary human fetal astrocytes (PHFA). A: ceftriaxone; B: amoxicillin; C: chloramphenicol; D: thiamphenicol; E: vancomycin; F: glycine; G: glutamate; H: DMSO; I: dibutyryl cAMP. PHFA (passage #3) were seeded at 1×10^5 cells/35-mm plate. Twenty-four h later cells were untreated (CON) or received the indicated compound at a final concentration of 10 μM. Forty-eight h later the cells were transfected with a FL pGL3/EAAT2 luciferase reporter construct (5 μg) plus a pSVβGalactosidase construct (1 μg) using the calcium phosphate precipitation method (Su et al. 2003, Proc. Natl. Acad. Sci. USA 100:1955-1960). After an additional 48 h, cell lysates were prepared and luciferase activity was determined using the Luciferase Assay System Kit (Promega, E1501) and luminescence determined using a luminometer (Turner Designs, TD20/20) (Su et al. 2003, Proc. Natl. Acad. Sci. USA 100:1955-1960). Data presented are the average of 3 independent plates±S.D. Qualitatively similar results were obtained in 2 additional experiments.
# as §2, with “Identification of Agents that Modulate hEAAT2 Promoter Activity. FIGS. 10-12 show the effects” for “FIG. 10. Effect”, “in PHFA (FIG. 10), PHFA-Im (FIG. 11) and H4 glioma (FIG. 12) cells. In the studies shown in FIG. 10,” for “on primary human fetal astrocytes (PHFA). A: ceftriaxone; B: amoxicillin; C: chloramphenicol; D: thiamphenicol; E: vancomycin; F: glycine; G: glutamate; H: DMSO; I: dibutyryl cAMP.”
structure (smiles),measurement,setting,value
"CCCC(=O)Nc1ncnc2c1ncn2[C@@H]1O[C@@H]2COP(=O)(O)O[C@H]2[C@H]1OC(=O)CCC [dbcAMP, dibutyryl cyclic AMP]",stimulation of promoter activity after deletion of bp −2426 to bp −703,[1]; deletion mutant,did not significantly decrease
same,upregulation of promoter activity after deletion of bp −703 to bp −326,[1]; deletion mutant,most relevant
same,upregulation of hEAAT2 promoter activity,[1]; flhEAAT2Prom-luc,~3 fold
same,relative rate of transcription of hEAAT2 RNA compared with GAPDH,[2],elevated
same,hEAAT2 promoter activity,[3],potent stimulators
